Tests used:
[1] = target: T1, dihydrofolate reductase (DHFR) (Homo sapiens, UniProt P00374); test: DHFR specific enzymatic activity in lysates of treated SKBR3 cells; format: cell-based; conditions: 6 μM (maximum inhibition)
T1 construct: Cell lysates were collected using Cell Culture Lysis Reagent; endogenous in cells; host or cells: MDA-MB231 and SKBR3 (human breast cancer cells)
T1 sequence (P00374 1-187): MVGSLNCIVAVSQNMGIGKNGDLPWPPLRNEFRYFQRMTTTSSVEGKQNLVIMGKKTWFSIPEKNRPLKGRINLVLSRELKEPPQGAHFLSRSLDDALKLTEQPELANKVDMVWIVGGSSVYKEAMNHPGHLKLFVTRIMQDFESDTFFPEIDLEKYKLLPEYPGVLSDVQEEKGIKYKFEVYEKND
Experimental: SKBR3, MDA-MB-231 and A17 cells were plated onto 100 mm cell culture dishes (2 × 10^6 cells/ dish). The day after, cells were treated with vehicle alone (DMSO) as control or increasing concentrations of compound 5 and compound 6 in DMEM supplemented with 2% FBS (Invitrogen, Carlsbad, CA) for 4 h or 12 h. Representative pictures of cells treated with compound 5 or 6 at the indicated concentration for 4 or 12 h just before to take cell lysates for the enzymatic tests are reported as supplemental files. Cell lysates were collected using Cell Culture Lysis Reagent (Promega, Madison, WI) supplemented with BSA (1%) and protease inhibitors. DHFR activity was assessed by spectrophotometric assay as reported elsewhere (Wang et al., [2020]) in which the reaction rate was followed by recording the decreasing absorbance at 340 nm due to oxidation of NADPH to NADP^+, using a Shimadzu UV-2450 spectrophotometer. When necessary, because of low protein content in the lysates, the DHFR enzymatic activity was measured by a discontinuous direct HPLC assay using an Agilent 1100 system. HPLC-DAD (Agilent 1100) was used to detect and quantify the presence of NADP^+, as one of the products of DHFR catalyzed reaction, in cell lysates. Fifty microliter of the cell lysate were incubated at 37°C in a reaction mixture containing 760 μl of buffer (0.05 M Hepes pH 7.3), 20 μl of NADPH 4 mM, and 20 μl of dihydrofolate (H2F) 4 mM. The samples for HPLC analysis were prepared as follows: 50 μl aliquots of each mixture were stopped at different times (0, 5, 10, 20, 30, and 60 min) by adding 25 μl of HClO4 1.2 M; after 10 min on ice and centrifugation for 5 min at 12,000 g, 60 μl of each supernatant were neutralized by adding 17.5 μl of K2CO3 0.79 M, kept on ice and centrifuged again. Fifty microliter of the supernatant obtained were directly injected into the reversed phase column for separations of reagents and products of the enzyme catalyzed reaction. The column used is a Supelcosil LC RP 18 (4.6 × 250 mm) with pre-column SupelGuard. The HPLC settings are the same reported in Wang et al. ([2020]). The amounts of product (NADP^+) were determined from the peak areas of the HPLC-separated compounds with reference to appropriate standards. One enzyme unit is defined as the amount of enzyme which catalyzes the reduction of 1 μmol of dihydrofolate, per minute, at 37°C. Enzyme activities were normalized by the protein content, determined by the Bradford assay (Bradford, [1976]).

[2] = test system: DAPI-ct-DNA complex; test: Minor groove displacement assay with DAPI (DAPI-ct-DNA); format: binding, calf; conditions: competitive DAPI displacement, fluorescence quenching, pH 7.4
Experimental: The changes in the emission spectra of DAPI complex with the DNA in 10 mM tris-HCl buffer at pH 7.4, 10 mM NaCl, were monitored upon addition of increasing concentrations of gold-compounds 5 and 6 at room temperature. Fluorescence quenching data were evaluated after excitation of DAPI-ct-DNA complex at 338 nm and recording the spectra from 400 to 600 nm. Values of Ksv constants were evaluated using Equation 3 and the quenching fluorescence values obtained were corrected according to Equation 2.

[3] = target: T2, bovine serum albumin (BSA) (Bos taurus, UniProt P02769); test: BSA tryptophan fluorescence quenching; format: binding; conditions: Stern-Volmer constant, Tris-HCl pH 7.4, room temperature
T2 construct: purchased Sigma Aldrich
T2 sequence (P02769 25-607): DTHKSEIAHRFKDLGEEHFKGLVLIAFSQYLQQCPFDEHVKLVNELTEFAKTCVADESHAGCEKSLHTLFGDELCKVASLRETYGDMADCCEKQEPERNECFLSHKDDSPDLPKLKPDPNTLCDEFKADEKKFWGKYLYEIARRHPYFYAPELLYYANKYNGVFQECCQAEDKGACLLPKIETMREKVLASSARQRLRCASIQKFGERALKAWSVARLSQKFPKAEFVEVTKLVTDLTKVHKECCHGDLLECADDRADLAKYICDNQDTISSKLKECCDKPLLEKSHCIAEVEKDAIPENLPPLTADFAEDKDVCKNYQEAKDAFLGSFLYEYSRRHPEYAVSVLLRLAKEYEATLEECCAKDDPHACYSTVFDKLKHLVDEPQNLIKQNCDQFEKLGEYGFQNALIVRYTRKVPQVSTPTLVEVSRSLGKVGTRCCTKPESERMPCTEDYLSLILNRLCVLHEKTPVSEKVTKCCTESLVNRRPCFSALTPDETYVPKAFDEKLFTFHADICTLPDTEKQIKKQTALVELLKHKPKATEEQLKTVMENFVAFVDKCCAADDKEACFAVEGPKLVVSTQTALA
Experimental: The protein-binding studies were performed by tryptophan fluorescence quenching experiments using bovine serum albumin (BSA) from Sigma Aldrich prepared in 10 mM Tris-HCl buffer pH 7.4, 10 mM NaCl. The concentration was determined by measuring the absorbance at 280 nm. Assuming a molecular weight of 66,400 and a molar extinction coefficient at 280 nm of 43,824 M^−1 cm^−1. Fluorescence measurements were recorded on a Hitachi 4,500 spectrofluorometer by keeping the concentration of BSA constant (15 × 10^−6 M) while increasing compounds 5 or 6 concentrations (5 mM in DMSO) were added to protein solution at room temperatures. Protein fluorescence intensity was recorded after each successive addition of gold compound solution and equilibration (ca. 5 min). Fluorescence spectra were recorded from 300 to 450 nm at an excitation wavelength of 285 nm. The value of Stern Volmer constants of the different metal complexes to BSA was evaluated following Equation 3 and fluorescent values were corrected by Equation 2.
Protein fluorescence intensity was recorded after each successive addition of complex solution and equilibration (ca. 5 min). Fluorescence spectra were recorded from 300 to 450 nm at an excitation wavelength of 285 nm. The value of Stern Volmer constants of the different metal complexes to BSA were evaluated following the equation 3 and fluorescent values were corrected by equation 2.

[4] = SKBR3, 4 h treatment, control 0.72 ± 0.05
[5] = SKBR3, 12 h treatment, control 0.67 ± 0.10

| Substance | Specific enzymatic activity of DHFR [1, 4] [mU/mg] | Specific enzymatic activity of DHFR [1, 5] [mU/mg] | DAPI-ct-DNA Ksv [2] | BSA Ksv [3] |
| --- | --- | --- | --- | --- |
| 4,5-dichloro-imidazolate-1yl-gold(I)-(triphenylphosphane) [Compound 6] | 0.64 ± 0.06 | 0.34 ± 0.01 | 4.98 ± 0.08 10^3 M^−1 | 2.04 ± 0.71 10^4 M^−1 |
| 4,5-dicyano-imidazolate-1yl-gold(I)-(triphenylphosphane) [Compound 5] | 0.54 ± 0.04 | 0.29 ± 0.05 | 6.12 ± 0.09 10^3 M^−1 | 2.46 ± 0.82 10^4 M^−1 |
